In US6083932A, “Pharmaceutical compositions derived from ginseng and methods of treatment using same” (CV Technologies Inc., priority 1998, dated 2000):
Where “and” joins values, the source holds several entries; their conditions need not be identical. Equal values may be shown once.

Columns and labels:
monoamine oxidase-B = target: T1, monoamine oxidase-B (Rattus norvegicus, UniProt P19643); experiment: in vitro monoamine oxidase-B inhibiting activity (radiochemical, β-phenylethylamine substrate); type: biochemical; settings: read-out: % MAO-B Inhibition; for inhibition at 1000 µg/mL: 1.0 mg/ml; for inhibition at 10000 µg/mL: 10 mg/ml
T1 construct: homogenates of rat brain; from tissue; host or cells: rat brain homogenate
T1 sequence (P19643 1-520): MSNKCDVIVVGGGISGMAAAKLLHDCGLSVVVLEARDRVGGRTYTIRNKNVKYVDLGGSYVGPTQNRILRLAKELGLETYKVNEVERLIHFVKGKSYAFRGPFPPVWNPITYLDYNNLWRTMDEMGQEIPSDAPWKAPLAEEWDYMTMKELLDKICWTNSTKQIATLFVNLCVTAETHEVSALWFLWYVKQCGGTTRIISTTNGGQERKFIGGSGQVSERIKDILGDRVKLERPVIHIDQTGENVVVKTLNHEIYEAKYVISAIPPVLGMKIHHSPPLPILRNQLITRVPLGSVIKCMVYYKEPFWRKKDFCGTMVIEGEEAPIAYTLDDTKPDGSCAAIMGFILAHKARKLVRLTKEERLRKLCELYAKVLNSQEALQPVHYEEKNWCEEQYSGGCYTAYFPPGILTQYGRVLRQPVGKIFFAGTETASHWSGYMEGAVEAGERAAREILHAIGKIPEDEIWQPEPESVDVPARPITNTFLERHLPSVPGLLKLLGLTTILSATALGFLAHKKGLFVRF
Experimental: Example 1 is a study of the effects of several extracts of HT1001, PQ4, PQ5, PQ6 and pure ginsenosides, on monoamine oxidase A (MAO A) and monoamine oxidase B (MAO B) activity in vitro.
HT-1001, related extracts and pure ginsenosides were evaluated for in vitro monoamine oxidase-A and monoamine oxidase-B inhibiting activity using the radiochemical procedure of Lyles and Callingham, Biochem. Pharmacol. 31: 1417-1424 (1982), employing either radiolabelled 5-hydroxytryptamine or β-phenylethylamine as substrates for monoamine oxidase-A (MAO-A) or monoamine oxidase-B (MAO-B) respectively. Various concentrations of the compounds of interest were incubated in appropriately diluted homogenates of rat brain in a 0.2 M potassium phosphate buffer. After a 15 minute preincubation period the reaction was initiated by the addition of substrate. Incubations proceded at 37° C. for 10 minutes. Incubation was terminated by the addition of acid and the radiolabelled products (5-hydroxyindoleacetic acid, 5-hydroxyindoleacetaldehyde or phenylacetic acid, phenylacetaldehyde) were extracted and quantified by liquid scintillation counting procedures. Incubations were done in triplicate and incubations including pheneizine a known MAO inhibitor were included as controls and for comparison. The percent inhibition of monoamine oxidase-A or monoamine oxidase-B activity compared to controls containing no experimental material was calculated.

[1] = system: choline uptake into synaptosomes, hippocampus; experiment: choline uptake into synaptosomes from rat hippocampus; type: biochemical; settings: 1 × 10^-6M, n = 10, 1 µM
From the text: We also studied the effects of HT1001 on choline uptake in synaptosomes.
We have examined choline uptake in synaptosome preparations from whole brain and hippocampus in the presence of Rb1, HT1001 and HC3.

rats = settings: rat, in vivo; cited from earlier work
[2] = system: choline uptake into synaptosomes, whole brain; settings: Benishin 1992 / previously demonstrated; cited from earlier work

| SMILES | inhibition at 1000 µg/mL (monoamine oxidase-B) | inhibition at 10000 µg/mL (monoamine oxidase-B) | choline uptake, Rb1 [1] | learning and memory (literature) (rats) | choline uptake (literature) [2] |
| --- | --- | --- | --- | --- | --- |
| CC(C)=CCC[C@](C)(O[C@@H]1O[C@H](CO[C@@H]2O[C@H](CO)[C@@H](O)[C@H](O)[C@H]2O)[C@@H](O)[C@H](O)[C@H]1O)[C@H]1CC[C@]2(C)[C@@H]1[C@H](O)C[C@@H]1[C@@]3(C)CC[C@H](O[C@@H]4O[C@H](CO)[C@@H](O)[C@H](O)[C@H]4O[C@@H]4O[C@H](CO)[C@@H](O)[C@H](O)[C@H]4O)C(C)(C)[C@@H]3CC[C@]12C [Rb1, ginsenoside Rb1] | -11.6% | -7.8% | 126 % control and 111 % control and 125 % control | enhance learning and memory | increase choline uptake |
| CC(C)=CCC[C@](C)(O[C@@H]1O[C@H](CO)[C@@H](O)[C@H](O)[C@H]1O)[C@H]1CC[C@]2(C)[C@@H]1[C@H](O)C[C@@H]1[C@@]3(C)CC[C@H](O)C(C)(C)[C@@H]3[C@@H](O[C@@H]3O[C@H](CO)[C@@H](O)[C@H](O)[C@H]3O)C[C@]12C [Rg1, ginsenoside Rg1] | -7.2% | -5% | – | – | – |
